Molecules are shown by their SMILES.

The first assay has as its system cell death induced by the NAMPT inhibitor FK866. As to the kind of experiment: Protection against cell death induced by the NAMPT inhibitor FK866 (Celltiter-Glo, cellular ATP). In kind it is cell-based. Particulars: AUC of dose-response curve (0.1-10 μM) relative to AUC of NAT; 10 nM FK866, 72 hours, cell viability by ATP. The method, then: In the latter cell-based assay, we determined the degree of protection of NAT and derivatives thereof against the NAMPT inhibitor FK866. […] After 72 hours, Celltiter-Glo (Promega) was used to detect cellular ATP levels to reflect cell viability and normalized to the DMSO group. A dose-response curve was drawn to evaluate the cytoprotective activity of individual compounds against FK866. Then the area under the dose-response curve (AUC, area under curve) of each compound was calculated and compared with the AUC of NAT, so that the obtained relative value quantitatively expressed the cytoprotective activity of each compound.
Background: Cellular ATP, detected with luciferase, serves as a proxy for viable cell number.
The compound `CC(C)(C)c1cccc(OCC(=O)Nc2ccc(O)cc2)c1` [Compound 13, 2-(3-(tert-butyl)phenoxy)-N-(4-hydroxyphenyl)acetamide] came in with a Relative cytoprotective activity of 0.2653.

In the case of `CC(C)(C)c1ccc(OCC(=O)Nc2ccc(O)cc2)cc1` [Compound 14, 2-(4-(tert-butyl)phenoxy)-N-(4-hydroxyphenyl)acetamide], the Relative cytoprotective activity was found to be 0.01994.

In turn, `Cc1ccccc1OCC(=O)Nc1ccc(O)cc1` [Compound 15, N-(4-hydroxyphenyl)-2-(o-tolyloxy)acetamide] showed a Relative cytoprotective activity of 0.4402.

Regarding `O=C(COc1ccccc1)Nc1ccc(O)cc1` [Compound 16, N-(4-hydroxyphenyl)-2-phenoxyacetamide], the Relative cytoprotective activity is on record as 0.1684.

Compound `O=C(COc1ccccc1-c1ccccc1)Nc1ccc(O)cc1` [Compound 17, 2-([1,1′-biphenyl]-2-yloxy)-N-(4-hydroxyphenyl)acetamide] yielded a Relative cytoprotective activity of 0.4572.

As for `CC(C)(C)c1cccc(C#N)c1OCC(=O)Nc1ccc(O)cc1` [Compound 21, 2-(2-(tert-butyl)-6-cyanophenoxy)-N-(4-hydroxyphenyl)acetamide], the Relative cytoprotective activity was 2.198.

The compound `CCc1ccc(OCC(=O)Nc2ccc(O)cc2)c(C(C)(C)C)c1` [Compound 54, 2-(2-(tert-butyl)-4-ethylphenoxy)-N-(4-hydroxyphenyl)acetamide] yielded a Relative cytoprotective activity of 0.8554.

As for `CC(C)(C)c1cc(F)ccc1OCC(=O)Nc1ccc(O)cc1` [Compound 56, 2-(2-(tert-butyl)-4-fluorophenoxy)-N-(4-hydroxyphenyl)acetamide], the Relative cytoprotective activity came out at 0.9846.

With `CC(C)(C)c1cccc(Br)c1OCC(=O)Nc1ccc(O)cc1` [Compound 59, 2-(2-bromo-6-(tert-butyl)phenoxy)-N-(4-hydroxyphenyl)acetamide], the Relative cytoprotective activity was 0.5085.

Staying with this assay, now noted: against FK866.
On to `CC(C)(C)c1cccc(C#N)c1OCC(=O)Nc1ccc(O)cc1` [Compound 21, 2-(2-(tert-butyl)-6-cyanophenoxy)-N-(4-hydroxyphenyl)acetamide], for which the “cytoprotective activity (in words)” value is “significantly improved compared with NAT”.

For another assay, the target named is NAMPT (Homo sapiens, UniProt P43490). In words: NAMPT enzyme activity assay coupled with NMNAT1 and ADH (NADH fluorescence). The conditions noted are these: AUC of dose-response curve (0.1, 0.3, 1, 3, 10 μM) relative to AUC of NAT (NAT = 1); 1 μM NAMPT, 200 μM NAM.
Sequence of NAMPT (P43490 whole entry, species assumed): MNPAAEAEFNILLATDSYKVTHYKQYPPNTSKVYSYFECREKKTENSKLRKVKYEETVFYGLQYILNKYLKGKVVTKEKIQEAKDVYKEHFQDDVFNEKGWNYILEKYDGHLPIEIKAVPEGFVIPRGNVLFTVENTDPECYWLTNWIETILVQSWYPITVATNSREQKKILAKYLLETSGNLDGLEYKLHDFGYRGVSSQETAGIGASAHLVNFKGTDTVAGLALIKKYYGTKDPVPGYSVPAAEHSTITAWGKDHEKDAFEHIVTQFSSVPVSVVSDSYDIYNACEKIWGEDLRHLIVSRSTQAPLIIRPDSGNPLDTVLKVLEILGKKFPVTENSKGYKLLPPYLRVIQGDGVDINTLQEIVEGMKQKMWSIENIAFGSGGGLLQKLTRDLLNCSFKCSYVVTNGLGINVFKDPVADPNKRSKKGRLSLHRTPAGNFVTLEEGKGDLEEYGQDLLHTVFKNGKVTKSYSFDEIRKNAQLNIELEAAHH
Method: The NAMPT enzyme activity was assayed by a method coupled with the three enzymes: NAMPT, NMNAT1 and alcohol dehydrogenase (ADH). NAMPT synthesizes NMN from NAM and PRPP, NMNAT1 synthesizes NAD from NMN produced in the first step, and ADH converts NAD into detectable fluorescent NADH. […] The reaction was initiated by adding 200 μM nicotinamide (NAM) and mixing gently. The enzyme activity of NAMPT was expressed as the concentration of NADH generated per minute (the molar value was equal to NAD). The relative enzyme activity of NAMPT in each compound-treated group was normalized by the value of the DMSO-treated group, and a dose-response curve was drawn to evaluate the effect of individual compounds on NAMPT enzyme activity. The area under the dose-response curve (AUC, area under curve) was then calculated for individual compound and compared to the AUC of NAT, so that the obtained relative value quantitative Eauc represented the enzyme activation activity of each compound, and the specific calculation formula was shown in FIG. 3.
With `CC(C)(C)c1ccccc1OCC(=O)Nc1cccc(O)c1` [Compound 3, 2-(2-(tert-butyl)phenoxy)-N-(3-hydroxyphenyl)acetamide], the “Relative activation of NAMPT activity” value is −0.1895.

For `CC(C)(C)c1ccccc1OCC(=O)Nc1ccccc1O` [Compound 4, 2-(2-(tert-butyl)phenoxy)-N-(2-hydroxyphenyl)acetamide], the “Relative activation of NAMPT activity” value is −0.1833.

Turning to `COc1ccc(NC(=O)COc2ccccc2C(C)(C)C)cc1` [Compound 5, 2-(2-(tert-butyl)phenoxy)-N-(4-methoxyphenyl)acetamide], the “Relative activation of NAMPT activity” value is recorded as −0.168.

Consider `CCOC(=O)c1ccc(NC(=O)COc2ccccc2C(C)(C)C)cc1` [Compound 6, ethyl 4-(2-(2-(tert-butyl)phenoxy)acetamido) benzoate], for which the “Relative activation of NAMPT activity” value is on record as −0.1512.

With `CN(C)c1ccc(NC(=O)COc2ccccc2C(C)(C)C)cc1` [Compound 7, 2-(2-(tert-butyl)phenoxy)-N-(4-(dimethylamino)phenyl)acetamide], the “Relative activation of NAMPT activity” value is −0.1777.

Regarding `CC(C)(C)c1ccccc1OCC(=O)Nc1ccc(Cl)cc1` [Compound 8, 2-(2-(tert-butyl)phenoxy)-N-(4-chlorophenyl)acetamide], the “Relative activation of NAMPT activity” value is on record as −0.1983.

For the compound `CC(C)(C)c1ccccc1OCC(=O)Nc1ccc(F)cc1` [Compound 9, 2-(2-(tert-butyl)phenoxy)-N-(4-fluorophenyl)acetamide], the “Relative activation of NAMPT activity” value was −0.2123.

`Cc1ccc(NC(=O)COc2ccccc2C(C)(C)C)cc1` [Compound 10, 2-(2-(tert-butyl)phenoxy)-N-(p-tolyl)acetamide]: the “Relative activation of NAMPT activity” value is given as −0.1608.

As to `CC(C)(C)c1ccccc1OCC(=O)Nc1ccc(Oc2ccccc2)cc1` [Compound 11, 2-(2-(tert-butyl)phenoxy)-N-(4-phenoxyphenyl)acetamide], the “Relative activation of NAMPT activity” value was −0.1409.

With `CC(C)(C)c1ccccc1OCC(=O)Nc1ccc(-c2ccccc2)cc1` [Compound 12], the “Relative activation of NAMPT activity” value was −0.0947.

Turning to `CC(C)(C)c1cccc(OCC(=O)Nc2ccc(O)cc2)c1` [Compound 13, 2-(3-(tert-butyl)phenoxy)-N-(4-hydroxyphenyl)acetamide], the “Relative activation of NAMPT activity” value is recorded as 0.2733.

For the compound `CC(C)(C)c1ccc(OCC(=O)Nc2ccc(O)cc2)cc1` [Compound 14, 2-(4-(tert-butyl)phenoxy)-N-(4-hydroxyphenyl)acetamide], the “Relative activation of NAMPT activity” value is given as −0.1236.

Take `O=C(COc1ccccc1)Nc1ccc(O)cc1` [Compound 16, N-(4-hydroxyphenyl)-2-phenoxyacetamide]: the “Relative activation of NAMPT activity” value was 0.0971.

Turning to `O=C(COc1ccccc1-c1ccccc1)Nc1ccc(O)cc1` [Compound 17, 2-([1,1′-biphenyl]-2-yloxy)-N-(4-hydroxyphenyl)acetamide], the “Relative activation of NAMPT activity” value is recorded as 0.3353.

Consider `CC(C)(C)c1ccccc1CNC(=O)Nc1ccc(O)cc1` [Compound 25, 1-(2-tert-butyl)benzyl-3-(4-hydroxyl)phenylurea], for which the “Relative activation of NAMPT activity” value is recorded as −0.2226.

With `CC(C)(C)c1ccccc1OCC(=O)Nc1ccc(S(N)(=O)=O)cc1` [Compound 26, 2-(2-(tert-butyl)phenoxy)-N-(4-sulfamoylphenyl)acetamide], the “Relative activation of NAMPT activity” value is recorded as −0.2346.

On to `CC(C)(C)c1ccccc1OCC(=O)Nc1ccc(B(O)O)cc1` [Compound 27], for which the “Relative activation of NAMPT activity” value came to 0.1217.

Take `CC(C)(C)c1ccccc1OCC(=O)Nc1ccc(CO)cc1` [Compound 28, 2-(2-(tert-butyl)phenoxy)-N-(4-(hydroxymethyl)phenyl)acetamide]: the “Relative activation of NAMPT activity” value is on record as −0.2198.

In the case of `CC(C)(C)OC(=O)Nc1ccc(NC(=O)COc2ccccc2C(C)(C)C)cc1` [Compound 29, tert-butyl (4-(2-(2-(tert-butyl)phenoxy)acetamido)phenyl)carbamate], the “Relative activation of NAMPT activity” value is −0.1978.

As for `CC(C)(C)c1ccccc1OCC(=O)Nc1ccc(N)cc1` [Compound 30, N-(4-aminophenyl)-2-(2-(tert-butyl)phenoxy)acetamide], the “Relative activation of NAMPT activity” value is reported as 0.8075.

As to `CC(C)(C)c1ccccc1OCC(=O)Nc1ccc(C#N)cc1` [Compound 32, 2-(2-(tert-butyl)phenoxy)-N-(4-cyanophenyl)acetamide], the “Relative activation of NAMPT activity” value is on record as −0.2396.

As to `CC(C)(C)c1ccccc1OCC(=O)Nc1ccc(C(=O)O)cc1` [Compound 33, 4-(2-(2-(tert-butyl)phenoxy)acetamido)benzoic acid], the “Relative activation of NAMPT activity” value is −0.1619.

Consider `CC(C)(C)c1ccccc1OCC(=O)Nc1ccc(S)cc1` [Compound 34, 2-(2-(tert-butyl)phenoxy)-N-(4-mercaptophenyl)acetamide], for which the “Relative activation of NAMPT activity” value was −0.096.

Regarding `CC(C)(C)c1ccccc1OCC(=O)Nc1ccc(O)cc1C(=O)O` [Compound 35, 2-(2-(2-(tert-butyl)phenoxy)acetamido)-5-hydroxybenzoic acid], the “Relative activation of NAMPT activity” value was −0.0889.

Regarding `CC(C)(C)c1ccccc1OCC(=O)Nc1ccc(O)c(O)c1` [Compound 37, 2-(2-(tert-butyl)phenoxy)-N-(3,4-dihydroxyphenyl)acetamide], the “Relative activation of NAMPT activity” value is −0.1366.

For `CC(C)(C)c1ccccc1OCC(=O)Nc1ccc(O)cc1C(F)(F)F` [Compound 38, 2-(2-(tert-butyl)phenoxy)-N-(4-hydroxy-2-(trifluoromethyl)phenyl)acetamide], the “Relative activation of NAMPT activity” value is on record as −0.12.

`CC(C)(C)c1ccccc1OCC(=O)Nc1ccc(O)c(C(F)(F)F)c1` [Compound 39, 2-(2-(tert-butyl)phenoxy)-N-(4-hydroxyl-3-(trifluoromethyl)phenyl)acetamide]: the “Relative activation of NAMPT activity” value is reported as −0.1435.

As for `CC(C)(C)c1ccccc1OCC(=O)Nc1ccc(O)c(Cl)c1` [Compound 42, 2-(2-(tert-butyl)phenoxy)-N-(3-chloro-4-hydroxyphenyl)acetamide], the “Relative activation of NAMPT activity” value was −0.1833.

Turning to `Cc1cc(O)ccc1NC(=O)COc1ccccc1C(C)(C)C` [Compound 43], the “Relative activation of NAMPT activity” value was −0.168.

With `COc1cc(NC(=O)COc2ccccc2C(C)(C)C)ccc1O` [Compound 44, 2-(2-(tert-butyl)phenoxy)-N-(4-hydroxyl-3-methoxyphenyl)acetamide], the “Relative activation of NAMPT activity” value is −0.1512.

For `COC(=O)c1cc(NC(=O)COc2ccccc2C(C)(C)C)ccc1O` [Compound 45, 5-(2-(2-(tert-butyl)phenoxy)acetamido)-2-hydroxybenzoic acid methyl ester], the “Relative activation of NAMPT activity” value is recorded as −0.3625.

As for `CC(=O)c1cc(NC(=O)COc2ccccc2C(C)(C)C)ccc1O` [Compound 46, N-(3-acetyl-4-hydroxyphenyl)-2-(2-(tert-butyl)phenoxy)acetamide], the “Relative activation of NAMPT activity” value is −0.1777.

As for `CC(C)(C)c1ccccc1OCC(=O)Nc1ccc(O)c(CO)c1` [Compound 47, 2-(2-(tert-butyl)phenoxy)-N-(4-hydroxyl-3-(hydroxymethyl)phenyl)acetamide], the “Relative activation of NAMPT activity” value is recorded as −0.1983.

`CC(C)(C)c1ccccc1OCC(=O)Nc1ccc(O)cc1O` [Compound 48, 2-(2-(tert-butyl)phenoxy)-N-(2,4-dihydroxyphenyl)acetamide]: the “Relative activation of NAMPT activity” value is listed as −0.1608.

Take `CC(C)(C)c1ccccc1OCC(=O)Nc1ccc(O)cn1` [Compound 49, 2-(2-(tert-butyl)phenoxy)-N-(5-hydroxypyridin-2-yl)acetamide]: the “Relative activation of NAMPT activity” value is listed as −0.0947.

With `CC(C)(C)c1ccccc1OCC(=O)Nc1ccc(O)cc1CO` [Compound 50, 2-(2-(tert-butyl)phenoxy)-N-(4-hydroxyl-2-(hydroxymethyl)phenyl)acetamide], the “Relative activation of NAMPT activity” value is −0.1356.

Take `CC(C)(C)c1cc(Br)cc(Br)c1OCC(=O)Nc1ccc(O)cc1` [Compound 60, 2-(2,4-dibromo-6-(tert-butyl)phenoxy)-N-(4-hydroxyphenyl)acetamide]: the “Relative activation of NAMPT activity” value turned out to be 0.02456.
